{
  "source": "paper PMC12655637",
  "about": "“Design, Synthesis, and Mechanistic Study of Novel Ciprofloxacin/Thiazole Chalcone Hybrids as Potential Anticancer Agents” (Pharmaceuticals, 2025)",
  "experiment_in_all_cases": "NCI-60 screening, one-dose (10 µM) and five-dose, SRB",
  "key": {"CCRF-CEM": {"test_system": "CCRF-CEM", "format": "cell-based, human"}, "HL-60(TB)": {"test_system": "HL-60(TB)", "format": "cell-based, human", "conditions": "HL-60(TB)"}, "K-562": {"test_system": "K-562", "format": "cell-based, human", "conditions": "five-dose, K-562"}, "A549/ATCC": {"test_system": "A549/ATCC", "format": "cell-based, human"}, "HOP-62": {"test_system": "HOP-62", "format": "cell-based, human", "conditions": "five-dose, HOP-62"}, "NCI-H226": {"test_system": "NCI-H226", "format": "cell-based, human"}, "NCI-H322M": {"test_system": "NCI-H322M", "format": "cell-based, human"}, "NCI-H460": {"test_system": "NCI-H460", "format": "cell-based, human"}, "NCI-H522": {"test_system": "NCI-H522", "format": "cell-based, human"}, "COLO 205": {"test_system": "COLO 205", "format": "cell-based, human"}, "HCT-15": {"test_system": "HCT-15", "format": "cell-based, human"}, "SF-268": {"test_system": "SF-268", "format": "cell-based, human"}, "SF-539": {"test_system": "SF-539", "format": "cell-based, human"}, "SNB-19": {"test_system": "SNB-19", "format": "cell-based"}, "U251": {"test_system": "U251", "format": "cell-based, human", "conditions": "Homo sapiens, U-251"}, "[1]": {"conditions": "Homo sapiens, five-dose, read-out: LC50 (the source's name)"}, "[2]": {"conditions": "Homo sapiens, five-dose, NCI-H226"}, "[3]": {"conditions": "Homo sapiens, five-dose, NCI-H460"}, "[4]": {"conditions": "Homo sapiens, five-dose, NCI-H522"}, "[5]": {"conditions": "Homo sapiens, five-dose, COLO 205"}, "[6]": {"conditions": "Homo sapiens, five-dose, HCT-15"}, "[7]": {"conditions": "Homo sapiens, five-dose, SF-268"}, "[8]": {"conditions": "Homo sapiens, five-dose, SF-539"}, "[9]": {"conditions": "Homo sapiens, five-dose, SNB-19"}},
  "note": "pIC50: −log10 of the molar value.",
  "data": [
    {"smiles": "Cc1nc(SCC(=O)N2CCN(c3cc4c(cc3F)c(=O)c(C(=O)O)cn4C3CC3)CC2)sc1C(=O)/C=C/c1cccc(Cl)c1", "note": "[Compound 4b, (E)-7-(4-(2-((5-(3-(3-Chlorophenyl)acryloyl)-4-methylthiazol-2-yl)thio)acetyl)piperazin-1-yl)-1-cyclopropyl-6-fluoro-4-oxo-1,4-dihydroquinoline-3-carboxylic Acid]", "values": [
      {"measurement": "activity at 10 µM", "setting": "CCRF-CEM; Homo sapiens, 10 μM, Leukemia, read-out: Growth percentage", "value": 49.7, "unit": "%"},
      {"measurement": "GI50", "setting": "CCRF-CEM; Homo sapiens, five-dose", "value": 6.9, "unit": "µM"},
      {"measurement": "pIC50", "setting": "CCRF-CEM; Homo sapiens, five-dose", "value": 4.93},
      {"measurement": "CC50", "setting": "CCRF-CEM; [1]", "value": "> 100", "unit": "µM"},
      {"measurement": "TGI", "setting": "CCRF-CEM; five-dose", "value": 31.6, "unit": "µM"},
      {"measurement": "pIC50", "setting": "HL-60(TB); Homo sapiens, HL-60, five-dose", "value": 5.43},
      {"measurement": "GI50", "setting": "HL-60(TB); Homo sapiens, five-dose", "value": 2.6, "unit": "µM"},
      {"measurement": "CC50", "setting": "HL-60(TB); [1]", "value": 34.7, "unit": "µM"},
      {"measurement": "TGI", "setting": "HL-60(TB); five-dose", "value": 11.2, "unit": "µM"},
      {"measurement": "GI50", "setting": "K-562; Homo sapiens, K562", "value": 4.2, "unit": "µM"},
      {"measurement": "pIC50", "setting": "K-562; Homo sapiens, K562", "value": 5.31},
      {"measurement": "CC50", "setting": "K-562; Homo sapiens, K562, read-out: LC50 (the source's name)", "value": "> 100", "unit": "µM"},
      {"measurement": "TGI", "setting": "K-562", "value": 100.0, "unit": "µM"},
      {"measurement": "activity at 10 µM", "setting": "A549/ATCC; Homo sapiens, 10 μM, Non-Small-Cell Lung Cancer, read-out: Growth percentage", "value": 82.4, "unit": "%"},
      {"measurement": "GI50", "setting": "A549/ATCC; Homo sapiens, five-dose", "value": "> 100", "unit": "µM"},
      {"measurement": "pIC50", "setting": "A549/ATCC; Homo sapiens, five-dose", "value": "< 4.00"},
      {"measurement": "CC50", "setting": "A549/ATCC; [1]", "value": "> 100", "unit": "µM"},
      {"measurement": "TGI", "setting": "A549/ATCC; five-dose", "value": 100.0, "unit": "µM"},
      {"measurement": "GI50", "setting": "HOP-62; Homo sapiens", "value": 4.3, "unit": "µM"},
      {"measurement": "pIC50", "setting": "HOP-62; Homo sapiens", "value": "< 4.00"},
      {"measurement": "CC50", "setting": "HOP-62; Homo sapiens, read-out: LC50 (the source's name)", "value": "> 100", "unit": "µM"},
      {"measurement": "TGI", "setting": "HOP-62", "value": 100.0, "unit": "µM"},
      {"measurement": "activity at 10 µM", "setting": "NCI-H226; Homo sapiens, 10 μM, NCI-H226, Non-Small-Cell Lung Cancer, read-out: Growth percentage", "value": 80.9, "unit": "%"},
      {"measurement": "GI50", "setting": "NCI-H226; [2]", "value": "> 100", "unit": "µM"},
      {"measurement": "pIC50", "setting": "NCI-H226; [2]", "value": "< 4.00"},
      {"measurement": "LC50 (concentration killing 50% of cells)", "setting": "NCI-H226; [2]", "value": "> 100", "unit": "µM"},
      {"measurement": "TGI", "setting": "NCI-H226; five-dose, NCI-H226", "value": 100.0, "unit": "µM"},
      {"measurement": "Growth percentage", "setting": "NCI-H322M; 10 μM, Non-Small-Cell Lung Cancer", "value": 100.9, "unit": "%"},
      {"measurement": "GI50", "setting": "NCI-H322M; Homo sapiens, five-dose", "value": "> 100", "unit": "µM"},
      {"measurement": "pIC50", "setting": "NCI-H322M; Homo sapiens, five-dose", "value": "< 4.00"},
      {"measurement": "LC50", "setting": "NCI-H322M; Homo sapiens, five-dose", "value": "> 100", "unit": "µM"},
      {"measurement": "TGI", "setting": "NCI-H322M; five-dose", "value": 100.0, "unit": "µM"},
      {"measurement": "activity at 10 µM", "setting": "NCI-H460; Homo sapiens, NCI-H460, 10 μM, NCI-H460, Non-Small-Cell Lung Cancer, read-out: Growth percentage", "value": 76.7, "unit": "%"},
      {"measurement": "GI50", "setting": "NCI-H460; [3]", "value": 58.9, "unit": "µM"},
      {"measurement": "pIC50", "setting": "NCI-H460; [3]", "value": 4.15},
      {"measurement": "CC50", "setting": "NCI-H460; Homo sapiens, five-dose, NCI-H460, read-out: LC50 (the source's name)", "value": "> 100", "unit": "µM"},
      {"measurement": "TGI", "setting": "NCI-H460; five-dose, NCI-H460", "value": 100.0, "unit": "µM"},
      {"measurement": "activity at 10 µM", "setting": "NCI-H522; Homo sapiens, 10 μM, NCI-H522, Non-Small-Cell Lung Cancer, read-out: Growth percentage", "value": 98.5, "unit": "%"},
      {"measurement": "GI50", "setting": "NCI-H522; [4]", "value": "> 100", "unit": "µM"},
      {"measurement": "pIC50", "setting": "NCI-H522; [4]", "value": "< 4.00"},
      {"measurement": "LC50 (concentration killing 50% of cells)", "setting": "NCI-H522; [4]", "value": "> 100", "unit": "µM"},
      {"measurement": "TGI", "setting": "NCI-H522; five-dose, NCI-H522", "value": 100.0, "unit": "µM"},
      {"measurement": "activity at 10 µM", "setting": "COLO 205; Homo sapiens, 10 μM, COLO 205, Colon Cancer, read-out: Growth percentage", "value": 114, "unit": "%"},
      {"measurement": "GI50", "setting": "COLO 205; [5]", "value": 4.3, "unit": "µM"},
      {"measurement": "pIC50", "setting": "COLO 205; [5]", "value": 5.21},
      {"measurement": "CC50", "setting": "COLO 205; Homo sapiens, five-dose, COLO 205, read-out: LC50 (the source's name)", "value": "> 100", "unit": "µM"},
      {"measurement": "TGI", "setting": "COLO 205; five-dose, COLO 205", "value": 100.0, "unit": "µM"},
      {"measurement": "activity at 10 µM", "setting": "HCT-15; Homo sapiens, 10 μM, HCT-15, Colon Cancer, read-out: Growth percentage", "value": 26.9, "unit": "%"},
      {"measurement": "pIC50", "setting": "HCT-15; [6]", "value": "< 4.00"},
      {"measurement": "LC50 (50% lethal concentration)", "setting": "HCT-15; [6]", "value": "> 100", "unit": "µM"},
      {"measurement": "TGI", "setting": "HCT-15; five-dose, HCT-15", "value": 100.0, "unit": "µM"},
      {"measurement": "activity at 10 µM", "setting": "SF-268; Homo sapiens, 10 μM, SF-268, CNS Cancer, read-out: Growth percentage", "value": 76.1, "unit": "%"},
      {"measurement": "GI50", "setting": "SF-268; [7]", "value": 22.4, "unit": "µM"},
      {"measurement": "pIC50", "setting": "SF-268; [7]", "value": 4.27},
      {"measurement": "CC50", "setting": "SF-268; Homo sapiens, five-dose, SF-268, read-out: LC50 (the source's name)", "value": "> 100", "unit": "µM"},
      {"measurement": "TGI", "setting": "SF-268; five-dose, SF-268", "value": 93.3, "unit": "µM"},
      {"measurement": "activity at 10 µM", "setting": "SF-539; Homo sapiens, SF-539, 10 μM, SF-539, CNS Cancer, read-out: Growth percentage", "value": 22.1, "unit": "%"},
      {"measurement": "GI50", "setting": "SF-539; [8]", "value": 3.7, "unit": "µM"},
      {"measurement": "pIC50", "setting": "SF-539; [8]", "value": 4.82},
      {"measurement": "CC50", "setting": "SF-539; Homo sapiens, five-dose, SF-539, read-out: LC50 (the source's name)", "value": "> 100", "unit": "µM"},
      {"measurement": "TGI", "setting": "SF-539; five-dose, SF-539", "value": 61.7, "unit": "µM"},
      {"measurement": "activity at 10 µM", "setting": "SNB-19; Homo sapiens, 10 μM, SNB-19, CNS Cancer, read-out: Growth percentage", "value": 54.7, "unit": "%"},
      {"measurement": "GI50", "setting": "SNB-19; [9]", "value": 22.4, "unit": "µM"},
      {"measurement": "pIC50", "setting": "SNB-19; [9]", "value": 4.31},
      {"measurement": "CC50", "setting": "SNB-19; Homo sapiens, five-dose, SNB-19, read-out: LC50 (the source's name)", "value": "> 100", "unit": "µM"},
      {"measurement": "TGI", "setting": "SNB-19; five-dose, SNB-19", "value": 100.0, "unit": "µM"},
      {"measurement": "activity at 10 µM", "setting": "U251; 10 μM, U251, CNS Cancer, read-out: Growth percentage", "value": 41.9, "unit": "%"},
      {"measurement": "GI50", "setting": "U251; five-dose, U251", "value": 34.7, "unit": "µM"},
      {"measurement": "pIC50", "setting": "U251; five-dose, U251", "value": "< 4.00"}
    ]}
  ]
}
